PMC6153549 (Investigational New Drugs, 2018)
Several values for one entry are separate records, joined by “and”; a condition that tells them apart may be missing. Equal entries are not always repeated. Where two headings read alike, the source gives them in different places.

Tests used:
[1] = lapatinib administered together with leucovorin, irinotecan and 5-fluorouracil; cited from earlier work
[2] = system: UGTs; conditions: in vitro, human liver microsomes; cited from earlier work
[3] = Plasma pharmacokinetics of paracetamol, paracetamol glucuronide and paracetamol sulphate in rats (HPLC-UV, non-compartmental); format: in vivo, Wistar rats; conditions: for AUC0-t / AUC0-∞ / Cmax / AUC(0-inf) / Vd/F / k el / MRT last / AUMC0-t / t0.5: plasma; for MRT last: read-out: MRT0-t
Experimental: The experimental protocol for this study was reviewed and approved by the Local Ethics Committee. All procedures were performed in accordance with the European Union regulations concerning the handling and use of laboratory animals. The study was based on the required minimum number of animals and observation time in order to obtain consistent data. […] The animals were allowed to acclimatise for a week before the beginning of the experiments. The rats were divided into three groups. […] In order to make sure that the animals received the entire dose of the drug, 1 mL of DMSO was then administered to rinse the probe. 80 μL of blood was collected from each rat by cutting off a piece of his tail. […] The blood samples were transferred into heparinised tubes and they were centrifuged at 2880 g for 10 min at 4 °C.
The total time of analysis for each run was 10 min. The column temperature was maintained at 25 °C, the UV detection wavelength was set at 261 nm, and the injection volume was 50 μL. The validation was performed according to the guidelines of the European Medicines Agency (EMA) concerning validation of bioanalytical methods. […] 20 μL of the internal standard solution and 200 μL of 6% perchloric acid were added to 100 μL of the rat plasma. The samples were shaken for 30 s and then they were centrifuged for 10 min at 5000 g. About 100 μL of the resulting supernatants was transferred into glass inserts and a volume of 50 μL was injected onto HPLC column.
The pharmacokinetic parameters were estimated with the non-compartmental method, using Phoenix® WinNonlin® 7.0 software (Certara L.P.). kel – elimination rate constant; AUC0-t – area under the plasma concentration-time curve from zero to the time of the last measurable concentration; AUC0-∞ – area under the plasma concentration-time curve from zero to infinity; t0.5 – elimination half-life; Cl/F – clearance; Vd/F – volume of distribution; Cmax – maximum plasma concentration; tmax – time necessary to reach the maximum concentration; MRT0-t – mean residence time; AUMC0-t – area under the first moment curve.

[4] = liver metabolism; cited from earlier work
[5] = parameters: method as in PMID 28070719; reduction of exposure to sunitinib by paracetamol / reduction of exposure to sunitinib in liver by paracetamol / reduction of exposure to sunitinib in kidneys by paracetamol / reduction of exposure to sunitinib in brain by paracetamol: concentration or dose not given beside the values; conditions: cited from earlier work
[6] = male mice which received paracetamol; cited from earlier work
[7] = IL + PA vs IIIPA group, listed as paracetamol glucoronide
[8] = paracetamol 100 mg/kg p.o. + lapatinib 100 mg/kg p.o. (IL + PA), M ± SD
[9] = paracetamol 100 mg/kg p.o. alone (IIIPA), M ± SD
[10] = paracetamol + lapatinib 100 mg/kg p.o. each (IL + PA), M ± SD
[11] = male, Wistar, rat, po, 100 mg/kg, paracetamol 100 mg/kg p.o. + lapatinib 100 mg/kg p.o. (IL + PA), M ± SD
[12] = male, Wistar, rat, po, 100 mg/kg, paracetamol 100 mg/kg p.o. alone (IIIPA), M ± SD

Q: Which “increase in AUC of SN-38” value [1] does the source give for CCc1c2c(nc3ccc(O)cc13)-c1cc3c(c(=O)n1C2)COC(=O)[C@]3(O)CC [SN-38] here?
A: Its value is “about 40%”.

Q: Which “inhibition of paracetamol glucuronidation” value (shortened to “inhibition”) [2] does the source give for Cc1nc(Nc2ncc(C(=O)Nc3c(C)cccc3Cl)s2)cc(N2CCN(CCO)CC2)n1 [dasatinib] here?
A: The value was “inhibited paracetamol glucuronidation”.

Q: With C#Cc1cccc(Nc2ncnc3cc(OCCOC)c(OCCOC)cc23)c1 [erlotinib, Erlotinib] as the compound, how does the “inhibition” value [2] read?
A: The value was “slight inhibitory effect”.

Q: Which “inhibition” value [2] does the source give for Cc1ccc(NC(=O)c2ccc(CN3CCN(C)CC3)cc2)cc1Nc1nccc(-c2cccnc2)n1 [imatinib] here?
A: Its value is “inhibited paracetamol glucuronidation”.

Q: For Cc1cn(-c2cc(NC(=O)c3ccc(C)c(Nc4nccc(-c5cccnc5)n4)c3)cc(C(F)(F)F)c2)cn1 [nilotinib], which “inhibition” value [2] is on record?
A: The value was “slight inhibitory effect”.

Q: With CC(=O)Nc1ccc(O[C@@H]2O[C@H](C(=O)O)[C@@H](O)[C@H](O)[C@H]2O)cc1 [paracetamol glucuronide] as the compound, how does the “decrease in AUC0-t” value ([3]; IL + PA vs IIIPA group) read?
A: The value was 26%.

Q: And the “decrease in AUC0-∞” value ([3]; IL + PA vs IIIPA group)?
A: Its value is 29%.

Q: And the “decrease in Cmax” value ([3]; IL + PA vs IIIPA group)?
A: Its value is 24%.

Q: What about the “decrease in AUC0-t” value [3, 7] of the same compound?
A: The value was about 25.5%.

Q: What about the “decrease in AUC0-∞” value [3, 7] of the same compound?
A: The value was about 28.6%.

Q: What about the “decrease in Cmax” value [3, 7] of the same compound?
A: The value was “about 24.4%”.

Q: And the AUC0-t [3, 8]?
A: The AUC0-t was 101.50 ± 22.02 (21.7) μg × h/mL.

Q: What about the “AUC0-∞” value [3, 8] of the same compound?
A: The value was 109.94 ± 22.89 (20.8) μg × h/mL.

Q: And the Cmax [3, 8]?
A: The Cmax was 29.01 ± 7.62 (26.3) μg/mL.

Q: And the “paracetamol glucuronide/paracetamol ratio, AUC0-t” value [3, 9]?
A: Its value is 1.75 ± 0.47 (27.1).

Q: And the “paracetamol glucuronide/paracetamol ratio, Cmax” value [3, 9]?
A: The value was 1.67 ± 0.41 (24.7).

Q: What about the AUC0-t [3, 9] of the same compound?
A: The AUC0-t was 136.24 ± 23.58 (17.31) μg × h/mL.

Q: And the “AUC0-∞” value [3, 9]?
A: Its value is 154.08 ± 35.58 (23.09) μg × h/mL.

Q: And the Cmax [3, 9]?
A: Its Cmax is 38.38 ± 3.75 (9.76) μg/mL.

Q: What about the “paracetamol glucuronide/paracetamol ratio, AUC0-t” value [3, 10] of the same compound?
A: Its value is 3.68 ± 1.67 (45.4).

Q: And the “paracetamol glucuronide/paracetamol ratio, AUC0-∞” value [3, 10]?
A: The value was 3.36 ± 2.37 (70.6).

Q: And the “paracetamol glucuronide/paracetamol ratio, Cmax” value [3, 10]?
A: The value was 3.58 ± 1.85 (51.5).

Q: What does the source list for CC(=O)Nc1ccc(OS(=O)(=O)O)cc1 [paracetamol sulphate]?
A: increase in AUC0-t ([3]; IL + PA vs IIIPA group): ~61% and 61.4%; AUC0-t [3, 8]: 116.04 ± 27.02 (23.3) μg × h/mL; AUC0-∞ [3, 8]: 130.23 ± 31.32 (24.1) μg × h/mL; Cmax [3, 8]: 35.15 ± 6.61 (18.8) μg/mL; paracetamol sulphate/paracetamol ratio, AUC0-t [3, 9]: 0.91 ± 0.43 (47.3); paracetamol sulphate/paracetamol ratio, AUC0-∞ [3, 9]: 1.05 ± 0.45 (43.1); paracetamol sulphate/paracetamol ratio, Cmax [3, 9]: 0.88 ± 0.46 (52.7); AUC0-t [3, 9]: 71.92 ± 31.04 (43.2) μg × h/mL; AUC0-∞ [3, 9]: 82.42 ± 32.71 (39.7) μg × h/mL; Cmax [3, 9]: 19.41 ± 7.05 (36.4) μg/mL; paracetamol sulphate/paracetamol ratio, AUC0-t [3, 10]: 4.27 ± 2.29 (53.5); paracetamol sulphate/paracetamol ratio, AUC0-∞ [3, 10]: 4.86 ± 2.74 (56.5); paracetamol sulphate/paracetamol ratio, Cmax [3, 10]: 4.73 ± 3.02 (64.0)

Q: What does the source list for CC(=O)Nc1ccc(O)cc1 [paracetamol, Paracetamol]?
A: decrease in AUC0-t ([3]; IL + PA vs IIIPA group): ~56.8%; decrease in AUC0-∞ ([3]; IL + PA vs IIIPA group): 48.8%; increase in MRT0-t ([3]; IL + PA vs IIIPA group): 12.1%; increase in Vd/F ([3]; IL + PA vs IIIPA group): 351.5%; AUC(0-inf) [3, 11]: 45400 ± 21200 ng·h/mL; Vd/F [3, 11]: 8.94 ± 8.04 L; k el [3, 11]: 6.67e-05 s⁻¹; AUC0-t ([3]; male, Wistar, rat, po, 100 mg/kg, paracetamol 100 mg/kg p.o. + lapatinib 100 mg/kg p.o. (IL + PA), M ± SD, read-out: AUC0-t): 34800 ± 20100 ng·h/mL; Cmax ([3]; male, Wistar, rat, po, 100 mg/kg, paracetamol 100 mg/kg p.o. + lapatinib 100 mg/kg p.o. (IL + PA), M ± SD, read-out: Cmax): 10900 ± 6880 ng/mL; MRT last [3, 11]: 2.88 ± 0.27 h; AUC(0-inf) [3, 12]: 88600 ± 8960 ng·h/mL; Vd/F [3, 12]: 1.98 ± 0.63 L; k el [3, 12]: 9.17e-05 s⁻¹; AUC0-t ([3]; male, Wistar, rat, po, 100 mg/kg, paracetamol 100 mg/kg p.o. alone (IIIPA), M ± SD, read-out: AUC0-t): 80500 ± 12100 ng·h/mL; Cmax ([3]; male, Wistar, rat, po, 100 mg/kg, paracetamol 100 mg/kg p.o. alone (IIIPA), M ± SD, read-out: Cmax): 24700 ± 8430 ng/mL; MRT last [3, 12]: 2.57 ± 0.3 h; AUMC0-t [3, 8]: 97.11 ± 52.00 (53.6) μg × h^2/mL; t0.5 [3, 8]: 5.30 ± 6.92 (130.7) h; AUMC0-t [3, 9]: 203.85 ± 18.15 (8.9) μg × h^2/mL; t0.5 [3, 9]: 2.26 ± 0.70 (31.0) h; fraction oxidised to toxic metabolite NAPQI [4]: less than 10%; fraction transformed by glucuronidation [4]: 40–60%; fraction transformed by sulphation [4]: 20–46%

Q: Which “inhibition” value [2] does the source give for CNC(=O)c1cc(Oc2ccc(NC(=O)Nc3ccc(Cl)c(C(F)(F)F)c3)cc2)ccn1 [sorafenib] here?
A: The value was “inhibited paracetamol glucuronidation”.

Q: Which “effect of paracetamol on sunitinib concentration” value ([5]; female mice) does the source give for CCN(CC)CCNC(=O)c1c(C)[nH]c(/C=C2\C(=O)Nc3ccc(F)cc32)c1C [sunitinib] here?
A: Its value is “did not affect the concentration”.

Q: What about the “reduction of exposure to sunitinib in brain by paracetamol” value ([5]; female mice) of the same compound?
A: Its value is 50%.

Q: And the “reduction of exposure to sunitinib in kidneys by paracetamol” value ([5]; female mice)?
A: Its value is 20%.

Q: What about the “reduction of exposure to sunitinib in liver by paracetamol” value ([5]; female mice) of the same compound?
A: Its value is 9%.

Q: What about the “reduction of exposure to sunitinib by paracetamol” value ([5]; male mice) of the same compound?
A: Its value is 29%.

Q: What about the “reduction of exposure to sunitinib in brain by paracetamol” value ([5]; male mice) of the same compound?
A: Its value is 47%.

Q: What about the “reduction of exposure to sunitinib in kidneys by paracetamol” value ([5]; male mice) of the same compound?
A: The value was 15%.

Q: What about the “reduction of exposure to sunitinib in liver by paracetamol” value ([5]; male mice) of the same compound?
A: The value was 15%.

Q: And the “kidney sunitinib concentration vs control group” value [6]?
A: Its value is 1.4 times.

Q: And the “liver sunitinib concentration vs control group” value [6]?
A: The value was 2.2 times.

Q: Which “inhibition” value [2] does the source give for COc1cc2c(Nc3ccc(Br)cc3F)ncnc2cc1OCC1CCN(C)CC1 [vandetanib] here?
A: Its value is “slight inhibitory effect”.
